{
  "source": "patent US20040171566A1",
  "about": "“Antisense modulation of p38 mitogen activated protein kinase expression” (priority 1999, published 2004)",
  "key": {"mouse p38α mRNA": {"tested_on": "mouse p38α mRNA", "assay": "Mouse p38α mRNA levels in bEND.3 cells, quantitative real-time PCR", "type": "cell-based", "set-up": "% Inhib. mouse p38α: concentration or dose not given beside the values", "how_it_was_run": "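Mouse bEND.3 cells, antisense oligonucleotide-treated; p38α mRNA measured by one-step real-time RT-PCR (RT 30 min at 48 °C, then 40 cycles) with a FAM/TAMRA probe. Levels normalized to GAPDH or RiboGreen total RNA, and percent inhibition derived from standard curves of untreated-control mRNA.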"}, "p38α": {"tested_on": "p38α", "assay": "p38α knock-down in mouse macrophage cell line RAW264.7, Western blotting", "type": "cell-based"}, "rat p38α mRNA": {"tested_on": "rat p38α mRNA", "assay": "Rat p38α mRNA levels in NR-8383 cells, quantitative real-time PCR", "type": "cell-based", "settings": "300 nM oligonucleotide with FuGENE 6, 24 hours, mRNA by quantitative real-time PCR, average of two experiments"}, "p38α mRNA": {"tested_on": "p38α mRNA", "assay": "Reduction of p38α mRNA in fibroblasts", "type": "cell-based", "settings": "read-out: IC50 for reducing p38α mRNA"}, "[1]": {"tested_on": "ovalbumin (OVA)-induced airway hyperresponsiveness and allergic inflammation", "assay": "Mouse model of allergic inflammation (OVA), aerosol oligonucleotide administration", "type": "in vivo", "procedure": "In the mouse model of allergic inflammation, mice were sensitized and challenged with aerosolized chicken ovalbumin (OVA). Airway responsiveness was assessed by inducing airflow obstruction with a methacholine aerosol using a noninvasive method. This methodology utilized unrestrained conscious mice that are placed into the main chamber of a plthysmograph (Buxco Electronics, Inc., Troy, N.Y.). Pressure differences between this chamber and a reference chamber were used to extrapolate minute volume, breathing frequency and enhanced pause (Penh). Penh is a dimensionless parameter that is a function of total pulmonary airflow in mice (i.e., the sum of the airflow in the upper and lower respiratory tracts) during the respiratory cycle of the animal. The lower the Penh, the greater the airflow. This parameter closely correlates with lung resistance as measured by traditional invasive techniques using ventilated animals (Hamelmann et al., 1997). Dose-response data were plotted as raw Penh values to increasing concentrations of methacholine. This system was used to test the efficacy of an antisense oligonucleotide targeted to mouse p38α (ISIS 101757; SEQ ID NO: 177). Mismatched p38α oligonucleotide (ISIS 101758; SEQ ID NO: 266) was used as a negative control.\n[…]. […] AHR was measured 24 hours after OVA challenge.\nAnimals were injected with a lethal dose of ketamine, the trachea was exposed and a cannula was inserted and secured by sutures. The lungs were lavaged twice with 0.5 ml aliquots of ice cold PBS with 0.2% FCS. The recovered BAL fluid was centrifuged at 1,000 rpm for 10 min at 4° C., frozen on dry ice and stored at −80° C. until used. Luminex was used to measure cytokine levels in BAL fluid and serum.\nCytospins of cells recovered from BAL fluid were prepared using a Shandon Cytospin 3 (Shandon Scientific LTD, Cheshire, England). Cell differentials were performed from slides stained with Leukostat (Fisher Scientific, Pittsburgh, Pa.). Total cell counts were quantified by hemocytometer and, together with the percent type by differential, were used to calculate specific cell number.\nBefore resection, lungs were inflated with 0.5 ml of 10% phosphate-buffered formalin and fixed overnight at 4° C. The lung samples were washed free of formalin with 1×PBS and subsequently dehydrated through an ethanol series prior to equilibration in xylene and embedded in paraffin. Sections (6μ) were mounted on slides and stained with hematoxylin/eosin, massons trichome and periodic acid-schiff (PAS) reagent. Parasagittal sections were analyzed by bright-field microscopy. Mucus cell content was assessed as the airway epithelium staining with PAS. Relative comparisons of mucus content were made between cohorts of animals by counting the number of PAS-positive airways."}, "[2]": {"settings": "sensitized mice, aerosol, compared to the mismatched control"}},
  "data": [
    {"substance": "ISIS 101757: antisense oligonucleotide targeted to mouse p38α, SEQ ID NO 177; 2′-MOE gapmer, all phosphorothioate linkages (antisense AGGTGCTCAGGACTCCATTT; all phosphorothioate, sugars by position and methylation of C not given here; 2'-MOE gapmer)", "values": [
      {"measurement": "% Inhib. mouse p38α", "setting": "mouse p38α mRNA; bEND.3 cells, mRNA by quantitative real-time PCR, average of two experiments", "result": 88, "unit": "%"},
      {"measurement": "IC50", "setting": "mouse p38α mRNA; endothelial cells, read-out: IC50 for reducing p38α mRNA", "result": "< 0.05", "unit": "µM"},
      {"measurement": "p38α knock-down effect", "setting": "p38α", "result": "confirmed"},
      {"measurement": "% Inhib. rat p38α", "setting": "rat p38α mRNA", "result": 53, "unit": "%"},
      {"measurement": "IC50", "setting": "p38α mRNA", "result": "~0.25", "unit": "µM"},
      {"measurement": "provocation concentration of methacholine required to achieve doubling of airway reactivity (PC200)", "setting": "[1]; OVA-challenged mice, inhaled", "result": "increases"},
      {"measurement": "methacholine-induced AHR", "setting": "[1]; OVA-sensitized mice, aerosol, whole body plethysmography", "result": "dose-dependently suppressed"},
      {"measurement": "OVA-induced increases in eosinophils recovered in BAL fluid", "setting": "[1]; aerosol", "result": "significantly (P<0.05) reduced"},
      {"measurement": "OVA-induced increases in total cell counts recovered in BAL fluid", "setting": "[1]; aerosol", "result": "significantly (P<0.05) reduced"},
      {"measurement": "OVA-induced inflammatory cell infiltration into the lungs (H&E stain)", "setting": "[1]; aerosol, histology", "result": "markedly inhibited"},
      {"measurement": "mucus hypersecretion in the airway epithelium (PAS stain)", "setting": "[1]; aerosol, histology", "result": "markedly inhibited"},
      {"measurement": "blood levels of OVA-specific IgE", "setting": "[1]; [2]", "result": "significantly (P<0.05);lowered"},
      {"measurement": "blood levels of OVA-specific IgG1", "setting": "[1]; [2]", "result": "significantly (P<0.05);lowered"},
      {"measurement": "blood levels of total IgE", "setting": "[1]; [2]", "result": "significantly (P<0.05);lowered"}
    ]}
  ]
}
